According to patent US20180177899A1, “HYDROPHILIC PARTICLES, METHOD FOR PRODUCING THE SAME, AND CONTRAST AGENT UTILIZING SAME” (Korea Basic Science Institute, priority 2015, published 2018):

Legend:
[1] = Surface charge (zeta potential) by particle size surface charge analyzer; format: physicochemical; conditions: aqueous phase
Experimental: The surface charge of the nanoparticle of Example 2 was measured using a particle size surface charge analyzer (Zetasizer Nano-ZS, […]). In addition, the surface charge of a pure indocyanine green solution was measured using the particle size surface charge analyzer.

[2] = Optical stability under continuous 785 nm laser irradiation; format: physicochemical; conditions: 30 minutes
Experimental: A slide glass on which the nanoparticle of Example 4 was spin coated thereon was prepared. A region of the slide glass was selected, and was continuously irradiated by 785 nm laser for 30 minutes.
FIGS. 14A to 14D are a single particle fluorescence images showing the optical stability of an up-conversion nanoparticle coated with indocyanine green.

surface charge [1]: −25.1 mV
SMILES: CC1(C)C(/C=C/C=C/C=C/C=C2\N(CCCCS(=O)(=O)O)c3ccc4ccccc4c3C2(C)C)=[N+](CCCCS(=O)(=O)[O-])c2ccc3ccccc3c21 [indocyanine green]
fluorescence signal of indocyanine green after laser irradiation (optical stability) [2]: relatively much reduced or disappeared after 30 minutes
